Molecules are shown by their SMILES.

T1 sequence (P23945 18-695): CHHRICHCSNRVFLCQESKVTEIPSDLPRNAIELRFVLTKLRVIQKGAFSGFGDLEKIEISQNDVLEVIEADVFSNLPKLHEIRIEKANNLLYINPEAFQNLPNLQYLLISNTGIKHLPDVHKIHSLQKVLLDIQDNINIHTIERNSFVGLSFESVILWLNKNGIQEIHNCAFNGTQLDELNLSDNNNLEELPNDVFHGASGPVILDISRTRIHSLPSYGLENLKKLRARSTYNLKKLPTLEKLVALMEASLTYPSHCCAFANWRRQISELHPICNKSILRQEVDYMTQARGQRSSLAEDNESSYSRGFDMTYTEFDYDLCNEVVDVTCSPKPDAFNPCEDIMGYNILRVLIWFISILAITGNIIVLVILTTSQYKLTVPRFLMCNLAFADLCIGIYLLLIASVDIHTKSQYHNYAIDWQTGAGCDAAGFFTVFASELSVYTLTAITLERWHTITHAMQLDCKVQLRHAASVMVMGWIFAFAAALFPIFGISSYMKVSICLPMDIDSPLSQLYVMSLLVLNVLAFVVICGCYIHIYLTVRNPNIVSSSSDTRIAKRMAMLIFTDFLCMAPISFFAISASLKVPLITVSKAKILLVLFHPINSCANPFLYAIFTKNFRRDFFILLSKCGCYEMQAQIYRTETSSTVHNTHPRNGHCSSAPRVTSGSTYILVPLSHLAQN
T1 sequence (P01215 25-116 partner): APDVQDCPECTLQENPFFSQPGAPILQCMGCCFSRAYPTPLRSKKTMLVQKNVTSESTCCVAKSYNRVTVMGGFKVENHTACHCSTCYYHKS
T1 sequence (P01225 19-129 partner): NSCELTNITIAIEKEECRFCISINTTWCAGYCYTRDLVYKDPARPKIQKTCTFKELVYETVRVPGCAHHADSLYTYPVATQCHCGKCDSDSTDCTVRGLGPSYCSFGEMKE

The first test has as its target T1, FSHR (Homo sapiens, UniProt P23945).
T1 construct: expressed in transfected cells; host or cells: CHO (Cho-FSHR-LUC-1-1-43)
Briefly: EC50 of cyclic AMP production in CHO FSHR cells + EC20 FSH (Assay A). Format: cell-based. As to conditions: 1 h; 5 μM; effect relative to maximum response of the FSH standard; Table 1. In a few lines:
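cAMP HTRF ratio (665/620 nm) read after 1 h, 37 °C exposure of CHO-FSHR cells to compound in presence of EC20 FSH ([…]) and IBMX 200 μM. Responses given relative to FSH standard maximum; EC50 derived.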
For `Cc1cc(C)c(C(=O)Nc2cc(C(=O)NCCCN3CCCC3=O)ccc2N2CCN(c3ccccc3C)CC2)o1` [Compound 51], the activation at 5 µM worked out at 39%.
Turning to `O=C(NCCCN1CCCC1=O)c1ccc(N2CCN(c3ccccn3)CC2)c(NC(=O)c2ccco2)c1` [Compound 126], the activation at 5 µM came to 33%.
Still for that read-out and setting: for `CCOC(=O)N1CCN(c2ccc(C(=O)NCCCN3CCCC3=O)cc2NC(=O)c2ccco2)CC1` [Compound 62, 4-{2-[(Furan-2-carbonyl)-amino]-4-[3-(2-oxo-pyrrolidin-1-yl)-propylcarbamoyl]-phenyl}-piperazine-1-carboxylic acid ethyl ester] the value was 42%; for `Cc1ccccc1N1CCN(c2ccc(C(=O)NCCCN3CCCC3=O)cc2NC(=O)c2cccc(N(C)C)c2)CC1` [Compound 86], 47%.

The test is the same for the next values; noted with them: 1 h; 5 μM; effect relative to maximum response of the FSH standard; Table 2.
Take `CCOC(=O)c1c[nH]nc1NC(=O)c1ccc(N2CCN(c3ccccc3C)CC2)c(NC(=O)c2coc(C3CC3)n2)c1` [Compound 314]: the activation at 5 µM was determined as 38%.

The test is the same for the next values; noted with them: CHO FSHR cells + EC20 FSH; Table 1; read-out: Assay A EC50 of cyclic AMP production.
As for `CC(=O)N(C)C[C@@H](NC(=O)c1ccc(N2CCN(c3ccccc3C)CC2)c(NC(=O)c2ccco2)c1)c1ccc(Cl)cc1` [Compound 57], the EC50 (usually the concentration needed to bring the measured effect to its halfway point) fell in the range of 1 to 10 µM.
The same measure, in the same setting: the figure for `Cc1ccccc1N1CCN(c2ccc(C(=O)N[C@H]3O[C@@H](CO)[C@@H]4OC(C)(C)O[C@@H]43)cc2NC(=O)c2ccco2)CC1` [Compound 191] is 0.1 to 1 µM; for `Cc1nc(C(=O)Nc2cc(C(=O)NCCCN3CCCC3=O)ccc2N2CCN(c3ccccc3C)CC2)c(C)o1` [Compound 102] it is 1 to 10 µM; for `COc1ccc(C(=O)Nc2cc(C(=O)NCCCN3CCCC3=O)ccc2N2CCN(c3ccccc3C)CC2)cc1` [Compound 42] it is 0.1 to 1 µM.
Consider `COc1ccc(-c2c[nH]nc2CNC(=O)c2ccc(N3CCN(c4ccccc4C)CC3)c(NC(=O)c3ccc(C)o3)c2)cc1` [Compound 172, 5-Methyl-furan-2-carboxylic acid [5-{[4-(4-methoxy-phenyl)-1H-pyrazol-3-ylmethyl]-carbamoyl}-2-(4-o-tolyl-piperazin-1-yl)-phenyl]-amide], for which the EC50 is 1 to 10 µM.
Turning to `Cc1ccccc1N1CCN(c2ccc(C(=O)NCc3ccc(Cl)cc3)cc2NC(=O)c2coc(C3CC3)n2)CC1` [Compound 235], the EC50 was 1 to 10 µM.
On the same count and under the same terms, the figure for `Cc1ccccc1N1CCN(c2ccc(C(=O)NCCCN3CCCC3=O)cc2NC(=O)c2scnc2C)CC1` [Compound 70] is greater than 10 µM; for `Cc1cccc(C(=O)Nc2cc(C(=O)NCCCN3CCCC3=O)ccc2N2CCN(c3ccccc3C)CC2)c1` [Compound 34] it is 1 to 10 µM.
On the same count and under the same terms, the figure for `C=CC(=O)NCCNC(=O)c1ccc(N2CCN(c3ccccc3C)CC2)c(NC(=O)c2ccco2)c1` [Compound 225] is 0.1 to 1 µM; for `Cc1ccccc1N1CCN(c2ccc(C(=O)NCCCN3CCCC3=O)cc2NC(=O)c2ccno2)CC1` [Compound 98] it is 1 to 10 µM.
Still for that read-out and setting: the figure for `Cc1nc(C(=O)Nc2cc(C(=O)NCCCN3CCCC3=O)ccc2N2CCN(c3ccccc3C)CC2)c(C(F)(F)F)o1` [Compound 76] is 1 to 10 µM; for `Cc1cccc(C(=O)Nc2cc(C(=O)NCCCN3CCCC3=O)ccc2N2CCN(c3ccccc3C)CC2)n1` [Compound 186, 6-Methyl-pyridine-2-carboxylic acid [5-[3-(2-oxo-pyrrolidin-1-yl)-propylcarbamoyl]-2-(4-o-tolyl-piperazin-1-yl)-phenyl]-amide] it is 1 to 10 µM.

Still in this test, the particulars now being: CHO FSHR cells + EC20 FSH; Table 2; read-out: Assay A EC50 of cyclic AMP production.
Take `Cc1ccccc1N1CCN(c2ccc(C(=O)NCC(C)(C)CN3CCCC3=O)cc2NC(=O)c2coc(C3CC3)n2)CC1` [Compound 356]: the half-maximal effective concentration (EC50) fell in the range of 0.1 to 1 µM.
As for `Cc1ccccc1N1CCN(c2ccc(C(=O)NCc3cccc(-c4nccs4)c3)cc2NC(=O)c2coc(C3CC3)n2)CC1` [Compound 382], the EC50 is 0.1 to 1 µM.
For the molecule `Cc1ccc(C(=O)Nc2cc(C(=O)NCCCN3CCCC3=O)ccc2N2CCN(c3ncncc3C)CC2)o1` [Compound 419], the EC50 was greater than 10 µM.
As to `Cc1ccc(C(=O)Nc2cc(C(=O)NC[C@H](O)c3ccccc3)ccc2N2CCN(c3ccccc3C)CC2)o1` [Compound 584], the concentration for a half-maximal effect (EC50) lay in the range of 1 to 10 µM.
The same measure, in the same setting: for `COC(C(=O)Nc1cc(C(=O)NCCCN2CCCC2=O)ccc1N1CCN(c2ccccc2C)CC1)c1ccccc1` (centres unmarked) [Compound 562] the value was 0.1 to 1 µM; for `CCOc1cc(CCCNC(=O)c2ccc(N3CCN(c4ccccc4C)CC3)c(NC(=O)c3ccco3)c2)ccc1OC` [Compound 579], 0.1 to 1 µM; for `Cc1ccccc1N1CCN(c2ccc(C(=O)NCCCN3CCCC3=O)cc2NC(=O)c2coc(CN(C)C)n2)CC1` [Compound 422], greater than 10 µM.
In the case of `Cc1ccccc1N1CCN(c2ccc(C(=O)NCc3cccc(CN4CCCC4)c3)cc2NC(=O)c2coc(C3CC3)n2)CC1` [Compound 538], the concentration giving a half-maximal response (EC50) lay in the range of 0.1 to 1 µM.
The same measure, in the same setting: the figure for `Cc1nc(CCCNC(=O)c2ccc(N3CCN(c4ccccc4C)CC3)c(NC(=O)c3coc(C4CC4)n3)c2)no1` [Compound 500] is 0.1 to 1 µM; for `Cc1ccccc1N1CCN(c2ccc(C(=O)NCCCn3cncn3)cc2NC(=O)c2coc(C3CC3)n2)CC1` [Compound 396] it is 0.1 to 1 µM.
With `Cc1ccccc1N1CCN(c2ccc(C(=O)NCCCN3C(=O)CN(C)C3=O)cc2NC(=O)c2coc(C3CC3)n2)CC1` [Compound 296], the half-maximal effective concentration (EC50) is 0.1 to 1 µM.
Regarding `Cc1ccc(C(=O)Nc2cc(C(=O)NCCCN3CCCC3=O)ccc2N2CCC(N(C)c3ccccc3)CC2)o1` [Compound 423], the 50% effective concentration (EC50) was greater than 10 µM.
With `Cc1ccccc1N1CCN(c2ccc(C(=O)NCCCC3CCCC3)cc2NC(=O)c2ccco2)CC1` [Compound 375], the concentration for a half-maximal effect (EC50) is 0.1 to 1 µM.
Regarding `Cc1ccccc1N1CCN(c2ccc(C(=O)N3CC4(COC4)C3)cc2NC(=O)c2coc(C3CC3)n2)CC1` [Compound 590], the EC50 lay within 0.1 to 1 µM.
On the same count and under the same terms, the figure for `Cc1ccccc1N1CCN(c2ccc(C(=O)NCCc3cccc(CN(C)C)c3)cc2NC(=O)c2coc(C3CC3)n2)CC1` [Compound 408] is 0.1 to 1 µM; for `Cc1ccccc1N1CCN(c2ccc(C(=O)N[C@H]3O[C@@H](CO)[C@@H]4OC(C)(C)O[C@@H]43)cc2NC(=O)c2coc(C3CC3)n2)CC1` [Compound 309] it is 0.1 to 1 µM.
Still for that read-out and setting: for `CCc1ccccc1N1CCN(c2ccc(C(=O)NCCCN3CCCC3=O)cc2NC(=O)c2ccc(C)o2)CC1` [Compound 517] the value was 0.1 to 1 µM; for `Cc1ccccc1N1CCN(c2ccc(C(=O)Nc3cccc(N4CCCC4=O)c3)cc2NC(=O)c2ccco2)CC1` [Compound 482], 1 to 10 µM; for `Cc1ccccc1N1CCN(c2ccc(C(=O)NCCCc3c[nH]cn3)cc2NC(=O)c2coc(C3CC3)n2)CC1` [Compound 274], 0.1 to 1 µM.
Still for that read-out and setting: for `Cc1ccccc1N1CCN(c2ccc(C(=O)NCCCC(=O)N(C)C)cc2NC(=O)c2coc(C3CC3)n2)CC1` [Compound 418] the value was 0.1 to 1 µM; for `Cc1cnccc1N1CCN(c2ccc(C(=O)NCCc3cnc[nH]3)cc2NC(=O)c2coc(C3CC3)n2)CC1` [Compound 457], 1 to 10 µM.
As to `CCCCNC(=O)NCCCNC(=O)c1ccc(N2CCN(c3ccccc3C)CC2)c(NC(=O)c2coc(C3CC3)n2)c1` [Compound 427], the concentration for a half-maximal effect (EC50) fell in the range of 0.1 to 1 µM.
On the same count and under the same terms, for `Cc1ccccc1N1CCN(c2ccc(C(=O)NCCCNC(=O)NC(C)(C)C)cc2NC(=O)c2ccco2)CC1` [Compound 493] the value was 0.1 to 1 µM.
Same read-out and setting: the figure for `Cc1ccccc1N1CCN(c2ccc(C(=O)NCCCc3cccc(O)c3)cc2NC(=O)c2ccco2)CC1` [Compound 589] is 0.1 to 1 µM; for `O=C(NCCCN1CCCC1=O)c1ccc(N2CCN(c3cccnc3)CC2)c(NC(=O)c2coc(C3CC3)n2)c1` [Compound 555] it is 1 to 10 µM; for `Cc1ccccc1N1CCN(c2ccc(C(=O)NCCCN3C(=O)OC[C@H]3CO)cc2NC(=O)c2coc(C3CC3)n2)CC1` [Compound 357] it is 0.1 to 1 µM.
Same read-out and setting: the figure for `Cn1ccnc1N1CCN(c2ccc(C(=O)NCCCN3CCCC3=O)cc2NC(=O)c2coc(C3CC3)n2)CC1` [Compound 483] is 1 to 10 µM; for `Cc1ccc(C(=O)Nc2cc(C(=O)NC(C)(C)c3cccc(CN(C)C)c3)ccc2N2CCN(c3ccccc3C)CC2)o1` [Compound 545] it is 1 to 10 µM.
With `Cc1ccccc1N1CCN(c2ccc(C(=O)NOC[C@H](O)CO)cc2NC(=O)c2coc(C3CC3)n2)CC1` [Compound 542], the concentration for a half-maximal effect (EC50) is 0.1 to 1 µM.
Still for that read-out and setting: for `Cc1ccccc1N1CCN(c2ccc(C(=O)NCCc3c[nH]cn3)cc2NC(=O)c2coc(C3CC3)n2)CC1` [Compound 293] the value was 0.1 to 1 µM; for `Cc1ccccc1N1CCN(c2ccc(C(=O)NCCCN3CCNC3=O)cc2NC(=O)c2ccco2)CC1` [Compound 468], less than 0.1 µM.
For `Cc1ccccc1N1CCN(c2ccc(C(=O)NCCCc3cccc(O)c3)cc2NC(=O)c2coc(C3CC3)n2)CC1` [Compound 570], the concentration giving a half-maximal response (EC50) fell in the range of 0.1 to 1 µM.
The same measure, in the same setting: the figure for `Cc1ccccc1N1CCN(c2ccc(C(=O)N[C@H]3CCC[C@@H](O)C3)cc2NC(=O)c2coc(C3CC3)n2)CC1` [Compound 575] is less than 0.1 µM; for `Cc1ccccc1N1CCN(c2ccc(C(=O)NCC[C@H]3COC(C)(C)O3)cc2NC(=O)c2coc(C3CC3)n2)CC1` [Compound 535] it is 0.1 to 1 µM; for `Cc1ccccc1N1CCN(c2ccc(C(=O)NCC3(C(N)=O)CC3)cc2NC(=O)c2coc(C3CC3)n2)CC1` [Compound 359] it is 0.1 to 1 µM.
For the molecule `Cc1ccc(C(=O)Nc2cc(C(=O)NCCCN3CCCC3=O)ccc2N2CCN(c3ccccc3C#N)CC2)o1` [Compound 522], the EC50 fell in the range of 1 to 10 µM.
For `Cc1ccccc1N1CCN(c2ccc(C(=O)NCCCC3CCS(=O)(=O)C3)cc2NC(=O)c2ccco2)CC1` (centres unmarked) [Compound 377], the EC50 lay within 0.1 to 1 µM.
With `Cc1ccccc1N1CCN(c2ccc(C(=O)NCc3cccc(C(=O)N(C)C)c3)cc2NC(=O)c2ccco2)CC1` [Compound 485], the EC50 fell in the range of 0.1 to 1 µM.
As to `Cc1ccccc1N1CCN(c2ccc(C(=O)NCCCn3nccc3C3CC3)cc2NC(=O)c2ccco2)CC1` [Compound 374], the 50% effective concentration (EC50) lay within 0.1 to 1 µM.

For the origin of these results see patent publication US9938262B2, “Benzamides” (Merck Patent GmbH, priority 2011, dated 2018).
